Active and inactive are the calls of the source.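 The calls were made as follows: active = growth-inhibition EC50 no more than tenfold above the top tested dose; inconclusive = flat fit between 30% and 70% inhibition, or unreliable fit; inactive = EC50 more than tenfold above the top tested dose.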
The compounds below were run on E. coli NEB5alpha growth, BacTiter-Glo luminescence, 4 h (assay: antibacterial activity against E. coli NEB5alpha – luminescence, counter-screen for MEX-5/POS-1 RNA-binding inhibitor project, dose response (AID 1959);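 also: pUC19-transformed ampicillin-resistant cells grown in LB with ampicillin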).
With `Nc1cc(C(=O)O)c(N)c2c1C(=O)c1ccccc1C2=O` the EC50 was > 11 µM (inactive).
In the case of `N#CC1=C(N)Oc2cc(O)c(Cl)cc2C1c1ccccc1F` (centres undefined), the EC50 is reported as > 11 µM (inactive).
With `CC1=C(C#N)C(=O)NC(=O)/C1=C\c1ccc(-c2cc(C)c(C)cc2[N+](=O)[O-])o1` the EC50 was > 11 µM (inactive).
With `CC(C)C(C(=O)O)N1C(=O)/C(=C/C=C/c2ccco2)SC1=S` (centres undefined) the EC50 was > 11 µM (inactive).
For `CC1CCCN(c2nc3ccccc3nc2C(C#N)S(=O)(=O)c2cccs2)C1` (centres undefined), the EC50 was > 11 µM (inactive).
In the case of `COc1ccc2c(c1)c1nc3ccccc3nc1n2Cc1ccc(OC)c(OC)c1`, the EC50 is reported as > 11 µM (inactive).
With `COC(=O)C1=C(C)N(c2ccc(Cl)cc2)/C(=C/c2cccs2)C1=O` the EC50 was > 11 µM (inactive).
With `O=C(CNC(=O)/C=C/c1ccco1)N=Nc1c(O)[nH]c2ccccc12` the EC50 was > 11 µM (inactive).
For `Cc1ccc(/C=C2\C(=O)NC(=S)N(c3ccc(F)cc3)C2=O)o1`, the EC50 was > 11 µM (inactive).
In the case of `CCOP(=O)(OCC)C(Nc1cccc([N+](=O)[O-])c1)c1ccccc1` (centres undefined), the EC50 is reported as > 11 µM (inactive).
For `COC(=O)CCCC1=CC2=CC(=O)C(C)(OC(=O)c3ccc(Cl)nc3)C(=O)C2=CO1` (centres undefined), the EC50 was > 11 µM (inactive).
`CCC(=O)OC1(C)C(=O)C2=COC(c3ccc(OC)cc3)=CC2=C(Br)C1=O` (centres undefined) was tested, and the EC50 was > 11 µM (inactive).
With `COc1cc(C(c2c(C(=O)O)[nH]c3ccccc23)c2c(C(=O)O)[nH]c3ccccc23)ccc1OCc1ccccc1` the EC50 was > 11 µM (inactive).
`CCCCC1(C)OC(=O)C(=Cc2ccc(N(CC)CC)cc2)C(=O)O1` (centres undefined) was tested, and the EC50 was > 11 µM (inactive).
`Cc1nn(-c2ccccc2)c(N2CCCC2)c1/C=C1\N=C(c2ccc(F)cc2)OC1=O` was tested, and the EC50 was > 11 µM (inactive).
For `Cc1ccn2cc(-c3ccc(O)c(O)c3)nc2c1`, the EC50 was > 11 µM (inactive).
In the case of `Cc1nc(S/C(=C/c2ccc(-c3ccc(C(=O)O)cc3)o2)C(=O)O)n[nH]1`, the EC50 is reported as > 11 µM (inactive).
With `Cn1c(=O)c(-c2cc(=O)[nH][nH]2)c(O)c2ccccc21` the EC50 was > 11 µM (inactive).
`Cc1cccn2c(=O)c3cc(C(=O)NC4CCCC4)c(=N)n(CCc4ccccc4)c3nc12` was tested, and the EC50 was > 11 µM (inactive).
`Cc1ccc(-c2ccccc2)n1-c1cccc(C(=O)O)c1` was tested, and the EC50 was > 11 µM (inactive).
With `NC(=O)c1sc2nnc(-c3ccccc3)c(-c3ccccc3)c2c1N` the EC50 was > 11 µM (inactive).
For `O=C1NC(=O)C(=Cc2cn(CCOc3ccc4c(c3)OCO4)c3ccccc23)C(=O)N1`, the EC50 was > 11 µM (inactive).
With `Cc1ccc(S(=O)(=O)NNC(=S)NC(=O)c2ccc([N+](=O)[O-])cc2)cc1` the EC50 was > 11 µM (inactive).
With `CC1OC(Oc2c(-c3cc(O)c(O)c(O)c3)oc3cc(O)cc(O)c3c2=O)C(O)C(O)C1O` (centres undefined) the EC50 was > 11 µM (inactive).
For `CCOC(=O)C1=C2NC(=O)c3ccccc3N2C(=O)C1`, the EC50 was > 11 µM (inactive).
In the case of `Cc1ccccc1OCC(=O)Nc1ccc2c(c1)C(=O)c1ccccc1C2=O`, the EC50 is reported as > 11 µM (inactive).
For `CC(C)(C)NC(=S)NCCc1ccccc1`, the EC50 was > 11 µM (inactive).
`CN1C(=O)NC(=O)/C(=C\c2ccc([N+](=O)[O-])o2)C1=O` was tested, and the EC50 was > 11 µM (inactive).
For `COc1ccc(OC)c(N2C(=O)/C(=C/c3ccco3)C(=O)NC2=S)c1`, the EC50 was > 11 µM (inactive).
For `COc1cccc(NS(=O)(=O)c2ccc3c(c2)C2C=CCC2C(c2ccc(C(=O)O)cc2)N3)c1` (centres undefined), the EC50 was > 11 µM (inactive).
In the case of `O=C(O)c1[nH]c2ccccc2c1C(c1cc(Cl)cc([N+](=O)[O-])c1O)c1c(C(=O)O)[nH]c2ccccc12`, the EC50 is reported as > 11 µM (inactive).
For `Cc1cc(O)cc2c1C(=O)/C(=C/c1ccco1)O2`, the EC50 was > 11 µM (inactive).
`Cc1ccccc1NC(=O)CN1C(=O)S/C(=C\c2ccc(-c3cc(C(=O)O)ccc3C)o2)C1=O` was tested, and the EC50 was > 11 µM (inactive).
In the case of `O=C(NCC1CCCO1)c1ccc(CS(=O)(=O)Cc2ccc(F)cc2)o1` (centres undefined), the EC50 is reported as > 11 µM (inactive).
`CN(C)c1ccc(/C=C/c2nc3ccccc3s2)cc1` was tested, and the EC50 was > 11 µM (inactive).
In the case of `CCCCC1=CC2=C(c3ccco3)C(=O)C(C)(OC(=O)c3ccc(OC)cc3)C(=O)C2=CN1C1CC1` (centres undefined), the EC50 is reported as > 11 µM (inactive).
In the case of `COc1cc(C(CCN2CCCC2)c2c(OC)cc(OC)c3c(-c4ccccc4)cc(=O)oc23)cc(OC)c1OC` (centres undefined), the EC50 is reported as > 11 µM (inactive).
With `CSc1nc(=S)c2[nH]c(=S)[nH]c2[nH]1` the EC50 was > 11 µM (inactive).
In the case of `Cc1ccc2oc(=O)c(/C=C(\O)CC(C)C)nc2c1`, the EC50 is reported as > 11 µM (inactive).
With `CN(C)c1ccc(/C=N/N(CCC(=O)NC(C)(C)C)C2=NS(=O)(=O)c3ccccc32)cc1` the EC50 was > 11 µM (inactive).
In the case of `O=C1C2CC=C(Cl)CC2C(=O)N1CCCCCCN1C(=O)C2CC=C(Cl)CC2C1=O` (centres undefined), the EC50 is reported as > 11 µM (inactive).
With `Cc1ccc(C)c(N2CCN(C(=O)c3cc4ccccn4n3)CC2)c1` the EC50 was > 11 µM (inactive).
For `Cn1c(=O)c2[nH]c(N/N=C(/C#N)C(N)=O)nc2n(C)c1=O`, the EC50 was > 11 µM (inactive).
For `COc1cc(/C=N/Nc2nc(=O)[nH]nc2C)ccc1O`, the EC50 was > 11 µM (inactive).
`N#CC(C#N)=Cc1ccc(-c2ccccc2)o1` was tested, and the EC50 was > 11 µM (inactive).
`CCOC(=O)C(C(=O)OCC)c1cc(Br)c2noc3c2c1C(=O)c1ccccc1-3` was tested, and the EC50 was > 11 µM (inactive).
In the case of `Cn1c(=O)cc2c3c(c(N4CCCCC4)ccc31)C(=O)c1ccccc1-2`, the EC50 is reported as > 11 µM (inactive).
In the case of `CCOC(=O)[C@]1(C#N)[C@@H]2C=CC(C(C)=O)=CN2[C@@H](C(N)=O)[C@@H]1c1ccsc1`, the EC50 is reported as > 11 µM (inactive).
`COc1ccccc1-n1c(O)c(/C=C2\C=Nc3ccccc32)c(=O)[nH]c1=O` was tested, and the EC50 was > 11 µM (inactive).
`Cc1n[nH]c(C)c1S(=O)(=O)N1CCCC(C(=O)Nc2ccc(Br)cc2)C1` (centres undefined) was tested, and the EC50 was > 11 µM (inactive).
In the case of `O=C(NNC(=O)c1cc(Cl)ccc1O)c1cccc(S(=O)(=O)N2CCOCC2)c1`, the EC50 is reported as > 11 µM (inactive).
With `O=C1c2ccccc2C(=O)N1CCCc1nc(-c2ccncc2)no1` the EC50 was > 11 µM (inactive).
With `CSc1sccc1/C=C(/C#N)C(=O)c1ccco1` the EC50 was > 11 µM (inactive).
In the case of `COC(=O)CCC(=O)OC1(C)C(=O)C=C2C=C(C3CC3)OC=C2C1=O` (centres undefined), the EC50 is reported as > 11 µM (inactive).
In the case of `CCOC(=O)c1ccc(-n2c(C)ccc2C)cc1`, the EC50 is reported as > 11 µM (inactive).
`Cc1c(N=C2Nc3cccc4cccc2c34)c(=O)n(-c2ccccc2)n1C` was tested, and the EC50 was > 11 µM (inactive).
`CCOc1ccc(/C=c2\sc3nc(-c4ccco4)nn3c2=O)cc1OCC` was tested, and the EC50 was > 11 µM (inactive).
With `COCCn1c(=N)c(S(=O)(=O)c2ccc(Br)cc2)cc2c(=O)n3ccccc3nc21` the EC50 was > 11 µM (inactive).
With `Cc1cc(/C=C2/C(=O)NC(=O)N(Cc3ccco3)C2=O)c(C)n1-c1ccc(C(=O)O)cc1` the EC50 was > 11 µM (inactive).
With `NS(=O)(=O)c1ccc(-c2cccc(/C=C3\SC(=O)NC3=O)c2)cc1` the EC50 was > 11 µM (inactive).
With `CCOC(=O)Cn1c(=O)c(-c2cc(Br)ccc2N)nc2ccccc21` the EC50 was > 11 µM (inactive).
`CC1(C)CC(=O)C2=C(C1)OC(N)=C(C#N)C2c1ccccc1OC(=O)N1CCOCC1` (centres undefined) was tested, and the EC50 was > 11 µM (inactive).
For `O=C(NNC(=O)c1cc(Cl)ccc1[N+](=O)[O-])c1csc(N2CCOCC2)n1`, the EC50 was > 11 µM (inactive).
In the case of `O=C(OCC(=O)c1ccco1)c1ccc2ncsc2c1`, the EC50 is reported as > 11 µM (inactive).
For `Cc1c(/C=N/Nc2ccc(F)cc2)c(O)n(C)c(=O)c1C#N`, the EC50 was > 11 µM (inactive).
`N/C(=N\N=C/c1ccc(-c2ccc(O)c(C(=O)O)c2)o1)N[N+](=O)[O-]` was tested, and the EC50 was > 11 µM (inactive).
In the case of `COc1ccc(CC(=O)NNC2=Nc3cccc4cccc2c34)cc1`, the EC50 is reported as > 11 µM (inactive).
For `CN1C(=O)C(=Cc2ccccc2OS(=O)(=O)c2ccccc2)C(=O)N(C)C1=O`, the EC50 was > 11 µM (inactive).
With `COc1cccc(=O)c2c(C)oc(C)c12` the EC50 was > 11 µM (inactive).
`N#CC1=C(N)OC2=C(C(=O)CCC2)C1c1ccc(OC(=O)N2CCOCC2)cc1` (centres undefined) was tested, and the EC50 was > 11 µM (inactive).
For `CCOc1cc(/C=C(\C#N)c2nc3ccccc3[nH]2)ccc1OC(C)C(=O)O` (centres undefined), the EC50 was > 11 µM (inactive).
`Oc1ccc(/C=C/c2cc(O)cc(O)c2)cc1` was tested, and the EC50 was > 11 µM (inactive).
`O=C(O)c1ccc2nc(-c3ccco3)c(-c3ccco3)nc2c1` was tested, and the EC50 was > 11 µM (inactive).
With `O=C(N/N=C/c1c(O)n(CCc2ccccc2)c(=O)[nH]c1=O)c1ccccc1` the EC50 was > 11 µM (inactive).
For `Nc1cc(S(=O)(=O)O)cc([N+](=O)[O-])c1O`, the EC50 was > 11 µM (inactive).
`Cc1ccc(NC(=O)CN2C(=O)S/C(=C\c3cccn3-c3cccc(C(=O)O)c3)C2=O)c(C)c1` was tested, and the EC50 was > 11 µM (inactive).
In the case of `O=C(O)c1cccc(-n2cccc2/C=C2\NC(=O)N(Cc3ccc(F)cc3)C2=O)c1`, the EC50 is reported as > 11 µM (inactive).
In the case of `COc1ccc(/C=c2\sc3nc(=O)c(C)nn3c2=O)c(OC)c1`, the EC50 is reported as > 11 µM (inactive).
`CCOC(=O)c1c2ccc(OCC(=O)N/N=C/c3ccc(C)cc3)cc2n2ccccc12` was tested, and the EC50 was > 11 µM (inactive).
In the case of `CC(C)(C)c1ccc(/C=C2\Oc3cc(O)ccc3C2=O)cc1`, the EC50 is reported as > 11 µM (inactive).
With `CCOCCCn1c(=NC(=O)c2cccs2)c(C#N)cc2c(=O)n3ccccc3nc21` the EC50 was > 11 µM (inactive).
In the case of `CCCCC1=CC2=CC(=O)C(C)(OC(=O)CCc3ccccc3)C(=O)C2=CO1` (centres undefined), the EC50 is reported as > 11 µM (inactive).
`Nc1nnc2c(n1)CCCC2` was tested, and the EC50 was > 11 µM (inactive).
For `COc1cccc(F)c1C(=O)NC(=O)Nc1ccc2nc(C)oc2c1`, the EC50 was > 11 µM (inactive).
With `CCOC(=O)c1c2ccc(OCC(=O)N/N=C/c3ccc(Cl)cc3)cc2n2ccccc12` the EC50 was > 11 µM (inactive).
With `CN1CCC2(CC1)C(C#N)=C(N)NC(S)=C2C#N` the EC50 was > 11 µM (inactive).
`CC(=O)N=Cc1c(C)c(C#N)c(=O)n(C)c1O` was tested, and the EC50 was > 11 µM (inactive).
`O=C(O)c1ccccc1-n1cccc1C(=O)O` was tested, and the EC50 was > 11 µM (inactive).
`O=C1/C(=C/c2ccc(Br)cc2)Oc2cc(O)ccc21` was tested, and the EC50 was > 11 µM (inactive).
In the case of `CSCC(C)N1CCC(N2CCC(C(=O)NCc3ccccn3)CC2)CC1` (centres undefined), the EC50 is reported as > 11 µM (inactive).
In the case of `CCCOc1cccc(C2C(C(=O)c3ccco3)=C(O)C(=O)N2c2nnc(C)s2)c1` (centres undefined), the EC50 is reported as > 11 µM (inactive).
With `O=C1NC(=S)N(c2ccc(F)cc2)C(=O)/C1=C/c1ccco1` the EC50 was > 11 µM (inactive).
For `CC1N(C)c2cccc3cccc(c23)N1C`, the EC50 was > 11 µM (inactive).
For `CN1C(=O)c2ccccc2NC(=O)[C@]12O[C@@H]2c1cccc(O)c1`, the EC50 was > 11 µM (inactive).

Source: PubChem BioAssay AID1959 (Broad Institute, 2009)
